The results in this text go back to patent publication US20250215012A1, “IKZF2 DEGRADERS AND USES THEREOF” (REGENTS OF THE UNIVERSITY OF MICHIGAN, priority 2022, published 2025).

This assay concerns the target IKZF2 (Homo sapiens (Human), UniProt Q96SW2+Q9UKS7). As to the kind of experiment: IKZF2 HiBiT Assay (Jurkat-IKZF2-HiBiT cell line). It counts as cell-based. To be noted: for DC50: read-out: HiBit assay degradation analysis DC50; for Dmax: read-out: HiBit assay degradation analysis Dmax. The gist of the method:
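IKZF2 degradation was assessed as HiBiT luminescence in Jurkat-IKZF2-HiBiT cells, using lytic detection after 24 h of compound treatment at 37 °C, 5% CO2.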
(In general: HiBiT is a short tag that completes a luciferase, so light tracks the accessible tagged protein.)

[1] abbreviates: Jurkat-IKZF2-HiBiT cells, 24 hours.

Like-named read-outs stand apart in the source and are kept apart here. Some results are limits rather than exact numbers.

Sequence of IKZF2 (Q9UKS7 whole entry): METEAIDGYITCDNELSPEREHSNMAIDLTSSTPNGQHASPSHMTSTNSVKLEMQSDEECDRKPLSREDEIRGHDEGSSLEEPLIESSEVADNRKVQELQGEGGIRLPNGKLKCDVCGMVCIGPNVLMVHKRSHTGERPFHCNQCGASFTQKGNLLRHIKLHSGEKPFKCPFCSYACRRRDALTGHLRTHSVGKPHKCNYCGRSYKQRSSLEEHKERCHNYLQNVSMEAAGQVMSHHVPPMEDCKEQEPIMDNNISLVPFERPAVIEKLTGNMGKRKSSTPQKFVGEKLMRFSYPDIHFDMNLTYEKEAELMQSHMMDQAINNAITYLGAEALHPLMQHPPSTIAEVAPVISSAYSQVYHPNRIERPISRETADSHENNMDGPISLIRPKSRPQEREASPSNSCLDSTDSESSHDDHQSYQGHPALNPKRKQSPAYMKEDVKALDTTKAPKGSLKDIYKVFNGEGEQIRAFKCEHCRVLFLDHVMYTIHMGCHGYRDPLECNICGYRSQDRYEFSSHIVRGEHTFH
Sequence of IKZF2 (Q96SW2 whole entry): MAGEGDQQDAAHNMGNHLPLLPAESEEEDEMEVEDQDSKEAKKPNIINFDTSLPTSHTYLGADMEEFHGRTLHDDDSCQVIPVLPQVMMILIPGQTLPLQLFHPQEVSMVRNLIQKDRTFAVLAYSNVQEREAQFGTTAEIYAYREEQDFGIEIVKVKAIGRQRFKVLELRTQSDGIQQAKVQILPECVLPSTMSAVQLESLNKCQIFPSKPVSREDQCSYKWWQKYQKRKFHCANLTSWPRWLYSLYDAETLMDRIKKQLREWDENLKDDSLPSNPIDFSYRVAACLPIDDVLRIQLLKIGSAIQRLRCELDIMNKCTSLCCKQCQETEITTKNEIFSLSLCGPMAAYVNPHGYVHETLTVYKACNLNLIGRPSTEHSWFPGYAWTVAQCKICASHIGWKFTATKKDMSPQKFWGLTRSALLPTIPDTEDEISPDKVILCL
Sequence of IKZF2 (Q16531 whole entry partner): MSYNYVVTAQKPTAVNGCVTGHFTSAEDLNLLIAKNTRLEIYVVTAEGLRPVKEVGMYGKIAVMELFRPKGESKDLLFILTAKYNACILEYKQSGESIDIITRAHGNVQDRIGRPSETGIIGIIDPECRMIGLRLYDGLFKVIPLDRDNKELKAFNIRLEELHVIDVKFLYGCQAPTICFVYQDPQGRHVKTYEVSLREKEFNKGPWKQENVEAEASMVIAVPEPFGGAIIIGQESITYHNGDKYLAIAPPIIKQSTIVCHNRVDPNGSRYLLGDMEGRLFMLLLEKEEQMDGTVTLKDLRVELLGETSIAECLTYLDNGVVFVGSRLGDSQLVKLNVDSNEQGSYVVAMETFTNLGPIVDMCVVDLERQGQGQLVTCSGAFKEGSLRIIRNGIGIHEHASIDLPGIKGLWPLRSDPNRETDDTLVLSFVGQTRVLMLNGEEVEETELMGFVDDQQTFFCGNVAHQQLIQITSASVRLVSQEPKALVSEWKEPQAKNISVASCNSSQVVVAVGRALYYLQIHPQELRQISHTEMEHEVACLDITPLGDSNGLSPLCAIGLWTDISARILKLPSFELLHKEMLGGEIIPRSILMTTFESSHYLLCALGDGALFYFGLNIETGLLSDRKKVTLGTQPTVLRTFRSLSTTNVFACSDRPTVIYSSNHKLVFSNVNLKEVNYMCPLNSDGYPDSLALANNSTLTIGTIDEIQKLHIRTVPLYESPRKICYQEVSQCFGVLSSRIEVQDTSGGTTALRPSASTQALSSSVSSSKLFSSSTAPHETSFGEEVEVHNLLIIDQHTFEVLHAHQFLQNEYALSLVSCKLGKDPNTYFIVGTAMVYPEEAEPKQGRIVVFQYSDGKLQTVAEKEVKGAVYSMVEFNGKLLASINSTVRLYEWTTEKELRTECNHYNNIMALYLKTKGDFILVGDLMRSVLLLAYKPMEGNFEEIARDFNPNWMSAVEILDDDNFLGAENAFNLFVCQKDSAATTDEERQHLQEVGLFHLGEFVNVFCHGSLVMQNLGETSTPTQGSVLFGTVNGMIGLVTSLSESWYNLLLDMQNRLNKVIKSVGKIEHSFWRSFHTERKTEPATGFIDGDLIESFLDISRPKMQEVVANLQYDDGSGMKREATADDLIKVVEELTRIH

One may read the DC50 as the concentration at which degradation of the target reaches its halfway point. In general, Dmax refers to the largest share of the target that was removed. With `O=C1CCC(N2Cc3c(ccc4c3OCC43CCN(Cc4cccc5c4NC(=O)C5)CC3)C2=O)C(=O)N1` (stereo not drawn) [Compound A152, 3-(6-oxo-1′-((2-oxoindolin-7-yl)methyl)-6,8-dihydro-2H,7H-spiro[furo[2,3-e]isoindole-3,4′-piperidin]-7-yl)piperidine-2,6-dione], under setting [1], the half-maximal degradation concentration (DC50) was in the range of 50 to 200 nM and the greatest degradation seen (Dmax) was 60 to 80%.

On to `O=C1CCC(N2Cc3c(ccc4c3OCC43CCN(Cc4ccc5c(c4)NC(=O)CO5)CC3)C2=O)C(=O)N1` (stereo not drawn) [Compound A153, 3-(6-oxo-1′-((3-oxo-3,4-dihydro-2H-benzo[b][1,4]oxazin-6-yl)methyl)-6,8-dihydro-2H,7H-spiro[furo[2,3-e]isoindole-3,4′-piperidin]-7-yl)piperidine-2,6-dione], for which, under setting [1], the DC50 lay within 50 to 200 nM and the maximal degradation (Dmax) lay within 60 to 80%.

As for `O=C1CCC(N2Cc3c(ccc4c3OCC43CCN(Cc4ccc5ccn(Cc6cccnc6)c5c4)CC3)C2=O)C(=O)N1` (stereo not drawn) [Compound A154, 3-(6-oxo-1′-((1-(pyridin-3-ylmethyl)-1H-indol-6-yl)methyl)-6,8-dihydro-2H,7H-spiro[furo[2,3-e]isoindole-3,4′-piperidin]-7-yl)piperidine-2,6-dione], under setting [1], the DC50 lay in the range of 200 to 500 nM and the Dmax is 60 to 80%.

As for `O=C1CCC(N2Cc3c(ccc4c3OCC43CCN(Cc4ccccc4Cn4cccn4)CC3)C2=O)C(=O)N1` (stereo not drawn) [Compound A155, 3-(1′-(2-((1H-pyrazol-1-yl)methyl)benzyl)-6-oxo-6,8-dihydro-2H,7H-spiro[furo[2,3-e]isoindole-3,4′-piperidin]-7-yl)piperidine-2,6-dione], under setting [1], the 50% degradation concentration (DC50) is > 500 nM and the Dmax is 40 to 60%.

Take `O=C1CCC(N2Cc3c(ccc4c3OCC43CCN(Cc4ccccc4-n4cccn4)CC3)C2=O)C(=O)N1` (stereo not drawn) [Compound A156, 3-(1′-(2-(1H-pyrazol-1-yl)benzyl)-6-oxo-6,8-dihydro-2H,7H-spiro[furo[2,3-e]isoindole-3,4′-piperidin]-7-yl)piperidine-2,6-dione]: under setting [1], the DC50 is > 500 nM and the Dmax is < 40%.

Regarding `O=C1CCC(N2Cc3c(ccc4c3OCC43CCN(Cc4ccccc4OCc4ccccn4)CC3)C2=O)C(=O)N1` (stereo not drawn) [Compound A157, 3-(6-oxo-1′-(2-(pyridin-2-ylmethoxy)benzyl)-6,8-dihydro-2H,7H-spiro[furo[2,3-e]isoindole-3,4′-piperidin]-7-yl)piperidine-2,6-dione], under setting [1], the 50% degradation concentration (DC50) is < 50 nM and the maximal degradation (Dmax) lay within 60 to 80%.

For the compound `O=C1CCC(N2Cc3c(ccc4c3OCC43CCN(Cc4ncsc4-c4ccccc4)CC3)C2=O)C(=O)N1` (stereo not drawn) [Compound A158, 3-(6-oxo-1′-((5-phenylthiazol-4-yl)methyl)-6,8-dihydro-2H,7H-spiro[furo[2,3-e]isoindole-3,4′-piperidin]-7-yl)piperidine-2,6-dione], under setting [1], the 50% degradation concentration (DC50) is > 500 nM and the maximal degradation (Dmax) is < 40%.

Take `CS(=O)(=O)Nc1cccc(CN2CCC3(CC2)COc2c3ccc3c2CN(C2CCC(=O)NC2=O)C3=O)c1` (stereo not drawn) [Compound A159, N-(3-((7-(2,6-dioxopiperidin-3-yl)-6-oxo-7,8-dihydro-2H,6H-spiro[furo[2,3-e]isoindole-3,4′-piperidin]-1′-yl)methyl)phenyl) methanesulfonamide]: under setting [1], the half-maximal degradation concentration (DC50) is > 500 nM and the Dmax fell in the range of 40 to 60%.

For `O=C1CCC(N2Cc3c(ccc4c3OCC43CCN(Cc4ccc(-c5cn[nH]c5)cc4)CC3)C2=O)C(=O)N1` (stereo not drawn) [Compound A162, 3-(1′-(4-(1H-pyrazol-4-yl)benzyl)-6-oxo-6,8-dihydro-2H,7H-spiro[furo[2,3-e]isoindole-3,4′-piperidin]-7-yl)piperidine-2,6-dione], under setting [1], the DC50 was 50 to 200 nM and the Dmax lay in the range of 60 to 80%.

Take `O=C1CCC(N2Cc3c(ccc4c3OCC43CCN(Cc4cnc5[nH]ccc5c4)CC3)C2=O)C(=O)N1` (stereo not drawn) [Compound A163, 3-(1′-((1H-pyrrolo[2,3-b]pyridin-5-yl)methyl)-6-oxo-6,8-dihydro-2H,7H-spiro[furo[2,3-e]isoindole-3,4′-piperidin]-7-yl)piperidine-2,6-dione]: under setting [1], the 50% degradation concentration (DC50) was < 50 nM and the Dmax lay in the range of 60 to 80%.

Take `O=C1CCC(N2Cc3c(ccc4c3OCC43CCN(Cc4ccc5oc(=O)[nH]c5c4)CC3)C2=O)C(=O)N1` (stereo not drawn) [Compound A165, 3-(6-oxo-1′-((2-oxo-2,3-dihydrobenzo[d]oxazol-5-yl)methyl)-6,8-dihydro-2H,7H-spiro[furo[2,3-e]isoindole-3,4′-piperidin]-7-yl)piperidine-2,6-dione]: under setting [1], the DC50 fell in the range of 50 to 200 nM and the Dmax was in the range of 60 to 80%.

For the compound `CN(C(=O)c1cccc(CN2CCC3(CC2)COc2c3ccc3c2CN(C2CCC(=O)NC2=O)C3=O)c1)c1cccc(F)c1` (stereo not drawn) [Compound A166, 3-((7-(2,6-dioxopiperidin-3-yl)-6-oxo-7,8-dihydro-2H,6H-spiro[furo[2,3-e]isoindole-3,4′-piperidin]-1′-yl)methyl)-N-(3-fluorophenyl)-N-methylbenzamide], under setting [1], the 50% degradation concentration (DC50) was 50 to 200 nM and the Dmax fell in the range of 40 to 60%.

On to `Cn1ccc(COc2cccc(CN3CCC4(CC3)COc3c4ccc4c3CN(C3CCC(=O)NC3=O)C4=O)c2)n1` (stereo not drawn) [Compound A167, 3-(1′-(3-((1-methyl-1H-pyrazol-3-yl)methoxy)benzyl)-6-oxo-6,8-dihydro-2H,7H-spiro[furo[2,3-e]isoindole-3,4′-piperidin]-7-yl)piperidine-2,6-dione], for which, under setting [1], the DC50 lay in the range of 50 to 200 nM and the Dmax fell in the range of 40 to 60%.

`Cn1cc2ccc(CN3CCC4(CC3)COc3c4ccc4c3CN([C@H]3CCC(=O)NC3=O)C4=O)cc2n1` [Compound A169, (S)-3-(1′-((2-methyl-2H-indazol-6-yl)methyl)-6-oxo-6,8-dihydro-2H,7H-spiro[furo[2,3-e]isoindole-3,4′-piperidin]-7-yl)piperidine-2,6-dione]: under setting [1], the 50% degradation concentration (DC50) is < 50 nM and the greatest degradation seen (Dmax) was in the range of 60 to 80%.

In the case of `O=C1CC[C@H](N2Cc3c(ccc4c3OCC43CCN(Cc4ccc5c(c4)C(=O)NC5)CC3)C2=O)C(=O)N1` [Compound A171, (S)-3-(6-oxo-1′-((3-oxoisoindolin-5-yl)methyl)-6,8-dihydro-2H,7H-spiro[furo[2,3-e]isoindole-3,4′-piperidin]-7-yl)piperidine-2,6-dione], under setting [1], the DC50 was 50 to 200 nM and the Dmax fell in the range of 60 to 80%.

`O=C1CC[C@H](N2Cc3c(ccc4c3OCC43CCN(Cc4ccc5cc[nH]c5c4)CC3)C2=O)C(=O)N1` [Compound A172, (S)-3-(1′-((1H-indol-6-yl)methyl)-6-oxo-6,8-dihydro-2H,7H-spiro[furo[2,3-e]isoindole-3,4′-piperidin]-7-yl)piperidine-2,6-dione]: under setting [1], the DC50 is < 50 nM and the maximal degradation (Dmax) lay in the range of 60 to 80%.

As to `O=C1CC[C@H](N2Cc3c(ccc4c3OCC43CCN(Cc4ccc5c(c4)NC(=O)C5)CC3)C2=O)C(=O)N1` [Compound A173, (S)-3-(6-oxo-1′-((2-oxoindolin-6-yl)methyl)-6,8-dihydro-2H,7H-spiro[furo[2,3-e]isoindole-3,4′-piperidin]-7-yl)piperidine-2,6-dione], under setting [1], the DC50 was in the range of 50 to 200 nM and the Dmax fell in the range of 60 to 80%.

Consider `O=C1CCC(N2Cc3c(ccc4c3OCC43CCN(Cc4cccc(-c5cnn(C6CC6)c5)c4)CC3)C2=O)C(=O)N1` (stereo not drawn) [Compound A174, 3-(1′-(3-(1-cyclopropyl-1H-pyrazol-4-yl)benzyl)-6-oxo-6,8-dihydro-2H,7H-spiro[furo[2,3-e]isoindole-3,4′-piperidin]-7-yl)piperidine-2,6-dione], for which, under setting [1], the DC50 was < 50 nM and the maximal degradation (Dmax) lay in the range of 60 to 80%.

Take `Cn1c(=O)oc2ccc(CN3CCC4(CC3)COc3c4ccc4c3CN(C3CCC(=O)NC3=O)C4=O)cc21` (stereo not drawn) [Compound A175, 3-(1′-((3-methyl-2-oxo-2,3-dihydrobenzo[d]oxazol-5-yl)methyl)-6-oxo-6,8-dihydro-2H,7H-spiro[furo[2,3-e]isoindole-3,4′-piperidin]-7-yl)piperidine-2,6-dione]: under setting [1], the half-maximal degradation concentration (DC50) is > 500 nM and the maximal degradation (Dmax) was < 40%.

In the case of `CC(=O)Nc1cccc(CN2CCC3(CC2)COc2c3ccc3c2CN(C2CCC(=O)NC2=O)C3=O)c1` (stereo not drawn) [Compound A176, N-(3-((7-(2,6-dioxopiperidin-3-yl)-6-oxo-7,8-dihydro-2H,6H-spiro[furo[2,3-e]isoindole-3,4′-piperidin]-1′-yl)methyl)phenyl) acetamide], under setting [1], the DC50 is > 500 nM and the Dmax lay in the range of 40 to 60%.

On to `COc1ccc(C(=O)Nc2cccc(CN3CCC4(CC3)COc3c4ccc4c3CN(C3CCC(=O)NC3=O)C4=O)c2)cc1` (stereo not drawn) [Compound A177, N-(3-((7-(2,6-dioxopiperidin-3-yl)-6-oxo-7,8-dihydro-2H,6H-spiro[furo[2,3-e]isoindole-3,4′-piperidin]-1′-yl)methyl)phenyl)-4-methoxybenzamide], for which, under setting [1], the DC50 was < 50 nM and the maximal degradation (Dmax) is > 80%.

`O=C1CCC(N2Cc3c(ccc4c3OCC43CCN(Cc4cccc(NC(=O)c5ccc(Cl)cc5)c4)CC3)C2=O)C(=O)N1` (stereo not drawn) [Compound A178, 4-chloro-N-(3-((7-(2,6-dioxopiperidin-3-yl)-6-oxo-7,8-dihydro-2H,6H-spiro[furo[2,3-e]isoindole-3,4′-piperidin]-1′-yl)methyl)phenyl)benzamide]: under setting [1], the half-maximal degradation concentration (DC50) is < 50 nM and the maximal degradation (Dmax) is > 80%.

As for `Cc1ccc(C(=O)Nc2cccc(CN3CCC4(CC3)COc3c4ccc4c3CN(C3CCC(=O)NC3=O)C4=O)c2)cc1` (stereo not drawn) [Compound A179, N-(3-((7-(2,6-dioxopiperidin-3-yl)-6-oxo-7,8-dihydro-2H,6H-spiro[furo[2,3-e]isoindole-3,4′-piperidin]-1′-yl)methyl)phenyl)-4-methylbenzamide], the maximal degradation (Dmax) is > 80%. Also, under setting [1], the DC50 was < 50 nM.

For `O=C1CCC(N2Cc3c(ccc4c3OCC43CCN(CC4CCCC(c5ccccc5)C4)CC3)C2=O)C(=O)N1` (stereo not drawn) [Compound A181, 3-(6-oxo-1′-((3-phenylcyclohexyl)methyl)-6,8-dihydro-2H,7H-spiro[furo[2,3-e]isoindole-3,4′-piperidin]-7-yl)piperidine-2,6-dione], under setting [1], the DC50 was 200 to 500 nM and the maximal degradation (Dmax) lay in the range of 40 to 60%.
